Among the data in patent US10913727B2, “Modulators of the integrated stress pathway” (Calico Life Sciences LLC, priority 2016, dated 2021) are EC50 values, retold here.

For the assay, the system named is HEK293T cells carrying the ATF4 luciferase reporter. The assay is described as follows: ATF4-Luc assay, in vitro model of Vanishing Cell White Matter Disease (VWMD). The following applies: Homo sapiens, HEK-293T, 1 μg/mL tunicamycin, 7 hours, One Glo luminescence. The assay is classed as cell-based. The essentials:
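Compound at 200 nM and tunicamycin at 1 μg/mL were given together for 7 h to HEK293T cells stably transduced with an ATF4 5′-UTR-driven firefly luciferase reporter. Read-out by luminescence, reported as EC50.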
For `O=C(COc1ccc(Cl)c(F)c1)NC12CC(NC(=O)c3cnoc3C3CC3)(C1)C2` [Compound 900, N-{3-[2-(4-chloro-3-fluorophenoxy)acetamido]bicyclo[1.1.1]pentan-1-yl}-5-cyclopropyl-1,2-oxazole-4-carboxamide], the EC50 was more than 2 µM. On to `Cc1onc(C(=O)NC23CC(NC(=O)COc4ccc(Cl)c(F)c4)(C2)C3)c1C` [Compound 901, N-{3-[2-(4-chloro-3-fluorophenoxy)acetamido]bicyclo[1.1.1]pentan-1-yl}-4,5-dimethyl-1,2-oxazole-3-carboxamide], for which the concentration giving a half-maximal response (EC50) was more than 2 µM. As to `O=C(COc1ccc(Cl)c(F)c1)NC12CC(NC(=O)c3cccc(-n4cnnc4)c3)(C1)C2` [Compound 902, N-{3-[2-(4-chloro-3-fluorophenoxy)acetamido]bicyclo[1.1.1]pentan-1-yl}-3-(4H-1,2,4-triazol-4-yl)benzamide], the EC50 was more than 2 µM. The result for `O=C(COc1ccc(Cl)c(F)c1)NC12CC(NC(=O)c3cnn4c3CCCC4)(C1)C2` [Compound 903, N-{3-[2-(4-chloro-3-fluorophenoxy)acetamido]bicyclo[1.1.1]pentan-1-yl}-4,5,6,7-tetrahydropyrazolo[1,5-a]pyridine-3-carboxamide] reads more than 2 µM; that for `Cn1ccnc1C(=O)NC12CC(NC(=O)COc3ccc(Cl)c(F)c3)(C1)C2` [Compound 904, N-{3-[2-(4-chloro-3-fluorophenoxy)acetamido]bicyclo[1.1.1]pentan-1-yl}-1-methyl-1H-imidazole-2-carboxamide], more than 2 µM; that for `NS(=O)(=O)c1ccc(C(=O)NC23CC(NC(=O)COc4ccc(Cl)c(F)c4)(C2)C3)o1` [Compound 905, N-{3-[2-(4-chloro-3-fluorophenoxy)acetamido]bicyclo[1.1.1]pentan-1-yl}-5-sulfamoylfuran-2-carboxamide], more than 2 µM. On to `CCc1nc(C)c(C(=O)NC23CC(NC(=O)COc4ccc(Cl)c(F)c4)(C2)C3)o1` [Compound 906, N-{3-[2-(4-chloro-3-fluorophenoxy)acetamido]bicyclo[1.1.1]pentan-1-yl}-2-ethyl-4-methyl-1,3-oxazole-5-carboxamide], for which the EC50 was 0.25 to 1 µM. `O=C(COc1ccc(Cl)c(F)c1)NC12CC(NC(=O)c3nc4ccccc4s3)(C1)C2` [Compound 907, N-{3-[2-(4-chloro-3-fluorophenoxy)acetamido]bicyclo[1.1.1]pentan-1-yl}-1,3-benzothiazole-2-carboxamide]: the EC50 was 0.05 to 0.25 µM.

Turning to `Cc1oncc1C(=O)NC12CC(NC(=O)COc3ccc(Cl)c(F)c3)(C1)C2` [Compound 908, N-{3-[2-(4-chloro-3-fluorophenoxy)acetamido]bicyclo[1.1.1]pentan-1-yl}-5-methyl-1,2-oxazole-4-carboxamide], the EC50 was more than 2 µM. The result for `Cc1ocnc1C(=O)NC12CC(NC(=O)COc3ccc(Cl)c(F)c3)(C1)C2` [Compound 909, N-{3-[2-(4-chloro-3-fluorophenoxy)acetamido]bicyclo[1.1.1]pentan-1-yl}-5-methyl-1,3-oxazole-4-carboxamide] reads more than 2 µM; that for `O=C(COc1ccc(Cl)c(F)c1)NC12CC(NC(=O)c3ncc(F)cc3F)(C1)C2` [Compound 910, N-{3-[2-(4-chloro-3-fluorophenoxy)acetamido]bicyclo[1.1.1]pentan-1-yl}-3,5-difluoropyridine-2-carboxamide], 0.05 to 0.25 µM; that for `CC(C)c1cccc(C(=O)NC23CCC(NC(=O)COc4ccc(Cl)c(F)c4)(CC2)C(O)C3)n1` (centres unmarked) [Compound 911, N-{4-[2-(4-chloro-3-fluorophenoxy)acetamido]-3-hydroxybicyclo[2.2.2]octan-1-yl}-6-(propan-2-yl)pyridine-2-carboxamide], 0.25 to 1 µM.

Turning to `CC(C)Oc1ccc(C(=O)NC23CCC(NC(=O)COc4ccc(Cl)c(F)c4)(CC2)C(O)C3)nc1` (centres unmarked) [Compound 912, N-{4-[2-(4-chloro-3-fluorophenoxy)acetamido]-3-hydroxybicyclo[2.2.2]octan-1-yl}-5-[(propan-2-yl)oxy]pyridine-2-carboxamide], the EC50 is less than 0.05 µM.

`Cc1cc(C(=O)NC23CC(NC(=O)COc4ccc(Cl)c(F)c4)(C2)C3)n(C(F)F)n1` [Compound 913, N-{3-[2-(4-chloro-3-fluorophenoxy)acetamido]bicyclo[1.1.1]pentan-1-yl}-1-(difluoromethyl)-3-methyl-1H-pyrazole-5-carboxamide]: the EC50 fell in the range of 0.25 to 1 µM. For `Cc1cccc(C(=O)NC23CCC(NC(=O)COc4ccc(Cl)c(F)c4)(CC2)C(O)C3)n1` (centres unmarked) [Compound 914, N-{4-[2-(4-chloro-3-fluorophenoxy)acetamido]-3-hydroxybicyclo[2.2.2]octan-1-yl}-6-methylpyridine-2-carboxamide], the EC50 is 0.05 to 0.25 µM. As to `Cc1ccnc(C(=O)NC23CCC(NC(=O)COc4ccc(Cl)c(F)c4)(CC2)C(O)C3)c1` (centres unmarked) [Compound 915, N-{4-[2-(4-chloro-3-fluorophenoxy)acetamido]-3-hydroxybicyclo[2.2.2]octan-1-yl}-4-methylpyridine-2-carboxamide], the EC50 lay within 0.25 to 1 µM. Regarding `Cc1nc(C(=O)NC23CCC(NC(=O)COc4ccc(Cl)c(F)c4)(CC2)C(O)C3)ccc1C#N` (centres unmarked) [Compound 916, N-{4-[2-(4-chloro-3-fluorophenoxy)acetamido]-3-hydroxybicyclo[2.2.2]octan-1-yl}-5-cyano-6-methylpyridine-2-carboxamide], the EC50 lay in the range of 0.05 to 0.25 µM. For `Cc1nc(C(=O)NC23CCC(NC(=O)COc4ccc(Cl)c(F)c4)(CC2)C(O)C3)ccc1F` (centres unmarked) [Compound 917, N-{4-[2-(4-chloro-3-fluorophenoxy)acetamido]-3-hydroxybicyclo[2.2.2]octan-1-yl}-5-fluoro-6-methylpyridine-2-carboxamide], the EC50 lay in the range of 0.05 to 0.25 µM.

As to `CCc1ccnc(C(=O)NC23CCC(NC(=O)COc4ccc(Cl)c(F)c4)(CC2)C(O)C3)c1` (centres unmarked) [Compound 918, N-{4-[2-(4-chloro-3-fluorophenoxy)acetamido]-3-hydroxybicyclo[2.2.2]octan-1-yl}-4-ethylpyridine-2-carboxamide], the EC50 lay in the range of 0.25 to 1 µM. On to `CCc1csc(C(=O)NC23CC(NC(=O)COc4ccc(Cl)c(F)c4)(C2)C3)n1` [Compound 919, N-{3-[2-(4-chloro-3-fluorophenoxy)acetamido]bicyclo[1.1.1]pentan-1-yl}-4-ethyl-1,3-thiazole-2-carboxamide], for which the 50% effective concentration (EC50) was less than 0.05 µM.

Consider `O=C(COc1ccc(Cl)c(Cl)c1)NC12CC(NC(=O)c3cnc4ccccc4n3)(C1)C2` [Compound 920, N-{3-[2-(3,4-dichlorophenoxy)acetamido]bicyclo[1.1.1]pentan-1-yl}quinoxaline-2-carboxamide], for which the EC50 is less than 0.05 µM. As to `O=C(COc1ccc(Cl)c(Cl)c1)NC12CC(NC(=O)c3cnoc3)(C1)C2` [Compound 921, N-{3-[2-(3,4-dichlorophenoxy)acetamido]bicyclo[1.1.1]pentan-1-yl}-1,2-oxazole-4-carboxamide], the concentration giving a half-maximal response (EC50) lay in the range of 1 to 2 µM. Take `COc1ccc(C(=O)NC23CCC(NC(=O)COc4ccc(Cl)c(F)c4)(CC2)C(O)C3)nc1` (centres unmarked) [Compound 922, N-{4-[2-(4-chloro-3-fluorophenoxy)acetamido]-3-hydroxybicyclo[2.2.2]octan-1-yl}-5-methoxypyridine-2-carboxamide]: the EC50 lay in the range of 0.25 to 1 µM.

For `COc1cccc(C(=O)NC23CCC(NC(=O)COc4ccc(Cl)c(F)c4)(CC2)C(O)C3)n1` (centres unmarked) [Compound 923, N-{4-[2-(4-chloro-3-fluorophenoxy)acetamido]-3-hydroxybicyclo[2.2.2]octan-1-yl}-6-methoxypyridine-2-carboxamide], the EC50 fell in the range of 0.05 to 0.25 µM. `COc1ccnc(C(=O)NC23CCC(NC(=O)COc4ccc(Cl)c(F)c4)(CC2)C(O)C3)c1` (centres unmarked) [Compound 924, N-{4-[2-(4-chloro-3-fluorophenoxy)acetamido]-3-hydroxybicyclo[2.2.2]octan-1-yl}-4-methoxypyridine-2-carboxamide]: the EC50 is more than 2 µM. `COCc1nc(C(=O)NC23CC(NC(=O)COc4ccc(Cl)c(Cl)c4)(C2)C3)cs1` [Compound 925, N-{3-[2-(3,4-dichlorophenoxy)acetamido]bicyclo[1.1.1]pentan-1-yl}-2-(methoxymethyl)-1,3-thiazole-4-carboxamide]: the EC50 is less than 0.05 µM. As to `COCc1nc(C(=O)NC23CC(NC(=O)COc4ccc(Cl)c(F)c4)(C2)C3)cs1` [Compound 926, N-{3-[2-(4-chloro-3-fluorophenoxy)acetamido]bicyclo[1.1.1]pentan-1-yl}-2-(methoxymethyl)-1,3-thiazole-4-carboxamide], the EC50 was 0.05 to 0.25 µM.

As to `O=C(COc1ccc(Cl)c(Cl)c1)NC12CC(NC(=O)c3ccc(C(F)F)nc3)(C1)C2` [Compound 927, N-{3-[2-(3,4-dichlorophenoxy)acetamido]bicyclo[1.1.1]pentan-1-yl}-6-(difluoromethyl)pyridine-3-carboxamide], the concentration giving a half-maximal response (EC50) fell in the range of 0.05 to 0.25 µM.

As for `O=C(COc1ccc(Cl)c(F)c1)NC12CC(NC(=O)c3ccc(-c4ccccc4)cn3)(C1)C2` [Compound 928, N-{3-[2-(4-chloro-3-fluorophenoxy)acetamido]bicyclo[1.1.1]pentan-1-yl}-5-phenylpyridine-2-carboxamide], the EC50 lay within 0.05 to 0.25 µM.

`O=C(COc1ccc(Cl)c(F)c1)NC12CC(NC(=O)c3ccc4cc(F)ccc4n3)(C1)C2` [Compound 929, N-{3-[2-(4-chloro-3-fluorophenoxy)acetamido]bicyclo[1.1.1]pentan-1-yl}-6-fluoroquinoline-2-carboxamide]: the 50% effective concentration (EC50) is less than 0.05 µM. Consider `O=C(COc1ccc(Cl)c(F)c1)NC12CCC(NC(=O)c3ccc4cc(F)ccc4n3)(CC1)[C@@H](O)C2` [Compound 930, N-{(2S)-4-[2-(4-chloro-3-fluorophenoxy)acetamido]-2-hydroxybicyclo[2.2.2]octan-1-yl}-6-fluoroquinoline-2-carboxamide], for which the EC50 is less than 0.05 µM. Regarding `O=C(COc1ccc(Cl)c(F)c1)NC12CCC(NC(=O)c3cnc(-c4ccccc4)o3)(CC1)C[C@@H]2O` [Compound 931, N-{(3S)-4-[2-(4-chloro-3-fluorophenoxy)acetamido]-3-hydroxybicyclo[2.2.2]octan-1-yl}-2-phenyl-1,3-oxazole-5-carboxamide], the EC50 was less than 0.05 µM.

What is called EC50 is the concentration giving half of the maximal effect.
